The test deals with HUVECs. The test can be described thus: Inhibition experiments: signalling inhibitors on LL-37/hCAP-18-induced endothelial proliferation. It counts as cell-based, human. As for the experimental part:
Stimulation of angiogenesis by LL-37/hCAP-18 in vitro. a, In vitro proliferation assays. HUVECs were seeded on six well plastic dishes and cultivated in serum free medium. Different concentrations of LL-37/hCAP-18 and control peptides were added to the culture medium. Figures on the left hand side indicate the numbers of cells per µl of volume after 72 h. VEGF was used as positive control. […] A significance level of P < 0.05 is labeled with **.b. […] HUVECs were seeded on Matrigel support and cultivated in serum free medium in the absence (c) or presence (d) of 0.5 µg/ml LL-37/hCAP-18. After 18 h, the cultures were inspected for the formation of rings and cords. Representative figures are shown.
Endothelial cells from human umbilical veins (HUVEC) were isolated as described before ^8. 10^4 cells were seeded on six well plastic dishes in serum free medium. Different concentrations of LL-37 were added to the culture medium. VEGF (5 ng / ml, 165 amino acid variant, Sigma Chemicals, Munich, Germany) was used as positive control. After 72 h the cells were detached from the support and counted. Experiments were repeated ten times using synthetic LL-37/hCAP-18 (37 C-terminal amino acids) and the hexapeptide WKYMVm, wherein "m" denotes the D-form of the amino acid methionine, from two different sources (IPF Pharmaceuticals, Hannover, Germany and Institute for Biochemistry, Humboldt-University of Berlin, Germany). As control peptide we used the peptide L-14 […] to have any interactions with FPRL1 from the same source (Humboldt-University). Human serum (10 %, donor with ABO blood group O) was applied under the same conditions to analyze any impact on induction of proliferation by LL-37. For inhibition experiments we applied inhibitors of G-protein coupled receptors (pertussis toxin, 10 ng/ml), PI-3K (wortmannin), and PKC (GF 109203X). For Matrigel assays HUVECs were seeded on Matrigel support (Beckton Dickinson, Franklin Lakes, NJ) and cultivated in serum free medium in the absence or presence of 0.5 µg/ml LL-37. After 18 h, the cultures were inspected for the formation of rings and cords. Experiments were repeated three times. We measured the ability of LL-37/hCAP-18 to accelerate proliferation of HUVECs in a proliferation assay. […] WKYMVm is a specific agonist for FPRL1 ^10.
As a next step we analyzed which mechanisms might be involved in the angiogenic activity of LL-37/hCAP-18. We applied inhibitors of G-protein coupled receptors (pertussis toxin), PI-3K (wortmannin), and PKC (GF 109203X) and monitored cell proliferation as outcome parameter.

“Also recorded” adds a separate entry of the source. Where two headings read alike, the source gives them in different places.

In the case of `CN(C)CCCn1cc(C2=C(c3c[nH]c4ccccc34)C(=O)NC2=O)c2ccccc21` [GF 109203X], the “effect of inhibitor on proliferative response induced by LL-37/hCAP-18” value (preincubation of endothelial cells with inhibitor (pertussis toxin 10 ng/ml)) was “inhibition of the proliferative response; also recorded: inhibited activities of LL-37/hCAP-18 on endothelial proliferation”. Moreover, the “effect of inhibitor on baseline cell proliferation” value (without LL-37/hCAP-18) is reported as “no effect on the baseline measurements”.

Take `COC[C@H]1OC(=O)c2coc3c2[C@@]1(C)C1=C(C3=O)[C@@H]2CCC(=O)[C@@]2(C)C[C@H]1OC(C)=O` [wortmannin]: the “effect of inhibitor on baseline cell proliferation” value is “no effect on the baseline measurements” and the “effect of inhibitor on proliferative response induced by LL-37/hCAP-18” value was “inhibition of the proliferative response; also recorded: inhibited activities of LL-37/hCAP-18 on endothelial proliferation”.

(Values after patent EP1358888A1, “The human peptide antibiotic LL-37/hCAP-18 is an inducer of angiogenesis” (priority 2002, dated 2003).)
